These results are taken from patent US20250024871A1, “AMIDE COMPOUNDS AND THEIR USE AS FLAVOR MODIFIERS” (Firmenich Incorporated, priority 2021, published 2025).

The target of the experiment is T1, T1R umami taste receptor (Homo sapiens, UniProt Q7RTX0+Q7RTX1).
T1 sequence (Q7RTX1 21-841): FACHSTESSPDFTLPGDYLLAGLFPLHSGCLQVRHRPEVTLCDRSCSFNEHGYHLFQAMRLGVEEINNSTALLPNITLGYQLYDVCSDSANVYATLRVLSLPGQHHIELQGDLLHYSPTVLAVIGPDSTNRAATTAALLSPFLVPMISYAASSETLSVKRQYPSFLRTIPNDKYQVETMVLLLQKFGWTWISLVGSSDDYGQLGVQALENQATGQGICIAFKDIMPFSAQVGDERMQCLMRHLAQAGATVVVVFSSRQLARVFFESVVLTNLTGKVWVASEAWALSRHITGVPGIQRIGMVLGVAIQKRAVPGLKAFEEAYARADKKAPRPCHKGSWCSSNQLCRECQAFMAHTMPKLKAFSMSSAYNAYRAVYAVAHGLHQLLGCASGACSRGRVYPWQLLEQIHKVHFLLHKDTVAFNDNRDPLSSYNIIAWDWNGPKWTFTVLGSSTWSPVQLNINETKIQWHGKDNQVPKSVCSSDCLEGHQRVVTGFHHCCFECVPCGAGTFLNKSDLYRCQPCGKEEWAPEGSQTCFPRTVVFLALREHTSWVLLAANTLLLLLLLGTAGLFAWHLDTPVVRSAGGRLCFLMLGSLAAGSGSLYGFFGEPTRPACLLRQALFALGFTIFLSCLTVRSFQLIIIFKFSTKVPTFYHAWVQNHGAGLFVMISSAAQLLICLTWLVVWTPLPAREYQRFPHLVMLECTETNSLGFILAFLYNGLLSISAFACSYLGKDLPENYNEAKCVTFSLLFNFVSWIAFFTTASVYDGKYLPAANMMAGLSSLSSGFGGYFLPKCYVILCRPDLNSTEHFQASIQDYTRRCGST
T1 sequence (Q7RTX0 21-852): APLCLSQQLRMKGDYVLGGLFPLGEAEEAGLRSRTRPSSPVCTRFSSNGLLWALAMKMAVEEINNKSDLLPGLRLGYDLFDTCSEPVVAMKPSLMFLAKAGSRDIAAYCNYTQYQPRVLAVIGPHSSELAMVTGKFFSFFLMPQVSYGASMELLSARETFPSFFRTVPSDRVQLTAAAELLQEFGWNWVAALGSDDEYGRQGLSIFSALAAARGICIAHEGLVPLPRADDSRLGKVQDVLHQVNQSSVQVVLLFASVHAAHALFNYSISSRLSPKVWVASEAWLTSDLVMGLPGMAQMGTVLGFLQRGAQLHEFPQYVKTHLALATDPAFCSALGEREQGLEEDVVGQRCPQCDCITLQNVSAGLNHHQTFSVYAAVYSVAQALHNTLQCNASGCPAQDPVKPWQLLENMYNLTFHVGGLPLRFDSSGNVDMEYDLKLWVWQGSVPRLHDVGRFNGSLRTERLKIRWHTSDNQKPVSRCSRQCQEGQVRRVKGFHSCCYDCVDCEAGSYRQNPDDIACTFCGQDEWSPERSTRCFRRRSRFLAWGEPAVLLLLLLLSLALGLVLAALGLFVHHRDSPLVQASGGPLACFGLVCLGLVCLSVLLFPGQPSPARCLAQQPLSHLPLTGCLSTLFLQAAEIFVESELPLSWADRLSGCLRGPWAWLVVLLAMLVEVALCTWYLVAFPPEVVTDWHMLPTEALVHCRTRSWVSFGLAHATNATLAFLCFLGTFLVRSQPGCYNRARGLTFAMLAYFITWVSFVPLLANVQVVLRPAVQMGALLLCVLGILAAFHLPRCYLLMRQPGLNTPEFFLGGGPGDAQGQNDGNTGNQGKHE
Description: in vitro cell-based assay having cells that express the T1R umami taste receptor (enhancement of MSG). The note with it: for EC50: cells expressing T1R umami taste receptor, read-out: EC50 for enhancement of MSG binding. As for the experimental part: Each of Compounds 101-183 was synthesized according to one of the general procedures set forth above in Examples 1. Thereafter, the compounds were tested in an in vitro cell-based assay having cells that express the T1R umami taste receptor. Dose-binding curves were recorded and the EC50 was determined for enhancement of MSG binding. Table 2 sets forth the calculated EC50 values for certain tested compounds as well as the MSG enhancement ratio at a particular concentration.

Structures are written as SMILES.

Take `COC(=O)CC[C@H](NC(=O)/C=C/c1ccccc1)C(=O)OC` [Compound 139, Dimethyl cinnamoyl-L-glutamate]: the “MSG Enh. Ratio” value (compound at 50 μM) was 3.82 @. The term EC50 denotes the concentration at which the effect is half-maximal. Consider `COC(=O)[C@H](Cc1ccccc1)NC(=O)c1ccc(C)c(C)c1` [Compound 119, Methyl (3,4-dimethylbenzoyl)-L-phenylalaninate], for which the EC50 came to 8 µM. For the same molecule, the “MSG Enh. Ratio” value (compound at 3 μM) was 4.6 @.

As for `CCOC(=O)CC[C@H](NC(=O)/C=C/c1ccc(OC)cc1)C(=O)OCC` [Compound 151, Diethyl (E)-(3-(4-methoxyphenyl)acryloyl)-L-glutamate], the EC50 is 2 µM. For the same molecule, the “MSG Enh. Ratio” value (compound at 3 μM) is reported as 4.2 @. Regarding `CCOC(=O)CC[C@H](NC(=O)c1cn(C)c2ccccc12)C(=O)OCC` [Compound 134, Diethyl (1-methyl-1H-indole-3-carbonyl)-L-glutamate], the EC50 was above 50 µM. Also, the “MSG Enh. Ratio” value (compound at 50 μM) is 3.8 @.

Regarding `COC(=O)[C@@H](CC(C)C)NC(=O)c1ccc(C)cc1` [Compound 101, Methyl (4-methylbenzoyl)-D-leucinate], the EC50 was below 2 µM.

`COC(=O)[C@H](CC(C)C)NC(=O)/C=C/c1ccc(OC)cc1` [Compound 149, Methyl (E)-(3-(4-methoxyphenyl)acryloyl)-L-leucinate]: the half-maximal effective concentration (EC50) was found to be 11 µM. Further, the “MSG Enh. Ratio” value (compound at 3 μM) is on record as 4.5 @. As for `COC(=O)[C@H](Cc1ccccc1)NC(=O)/C=C/c1ccccc1OC` [Compound 152, Methyl (E)-(3-(2-methoxyphenyl)acryloyl)-L-phenylalaninate], the EC50 stood at 27 µM. Further, under “compound at 10 μM”, the “MSG Enh. Ratio” value is 2.8 @. Consider `C/C=C/C(=O)N[C@@H](Cc1ccccc1)C(=O)OC` [Compound 167, Methyl (E)-but-2-enoyl-L-phenylalaninate], for which the EC50 is above 50 µM. The “MSG Enh. Ratio” value (compound at 50 μM) was 2.1 @. In the case of `CCC/C=C/C(=O)N[C@@H](CCC(=O)OCC)C(=O)OCC` [Compound 178, Diethyl (E)-hex-2-enoyl-L-glutamate], the EC50 was above 50 µM. For the setting “compound at 50 μM”, the “MSG Enh. Ratio” value is on record as 5.6 @. Turning to `COC(=O)[C@@H](Cc1ccccc1)NC(=O)c1ccc(C)c(C)c1` [Compound 113, Methyl (3,4-dimethylbenzoyl)-D-phenylalaninate], the EC50 came to 0.3 µM.

Turning to `CCOC(=O)[C@@H](NC(=O)c1ccc(OC)cc1)C(C)C` [Compound 106, Ethyl (4-methoxybenzoyl)-L-valinate], the EC50 worked out at 36 µM. Under “compound at 50 μM”, the “MSG Enh. Ratio” value is 3.6 @. Regarding `CCOC(=O)CC[C@H](NC(=O)c1ccc(C)c(C)c1)C(=O)OCC` [Compound 122, Diethyl (3,4-dimethylbenzoyl)-L-glutamate], the EC50 is 2 µM. For the same molecule, under “compound at 3 μM”, the “MSG Enh. Ratio” value was 4.9 @. As for `COC(=O)[C@@H](CC(C)C)NC(=O)/C=C/c1ccc(OC)cc1` [Compound 144, Methyl (E)-(3-(4-methoxyphenyl)acryloyl)-D-leucinate], the EC50 came to 0.1 µM. In the case of `CCCCc1ccc(C(=O)N[C@@H](Cc2ccccc2)C(=O)OC)nc1` [Compound 132, Methyl (5-butylpicolinoyl)-L-phenylalaninate], the EC50 is above 50 µM. Where the note is “compound at 50 μM”, the “MSG Enh. Ratio” value is recorded as 2.6 @.

Consider `COC(=O)[C@@H](NC(=O)c1ccc(OC)c(OC)c1)C(C)C` [Compound 124, Methyl (3,4-dimethoxybenzoyl)-L-valinate], for which the EC50 is above 50 µM. In addition, the “MSG Enh. Ratio” value (compound at 50 μM) is 1.8 @. Turning to `CCOC(=O)[C@@H](CC(C)C)NC(=O)/C=C/c1ccc(OC)cc1` [Compound 150, Ethyl (E)-(3-(4-methoxyphenyl)acryloyl)-D-leucinate], the EC50 was 1 µM. On to `CCOC(=O)[C@@H](NC(=O)c1ccc2ccccc2n1)C(C)C` [Compound 133, Ethyl (quinoline-2-carbonyl)-L-valinate], for which the EC50 is above 50 µM. Moreover, the “MSG Enh. Ratio” value (compound at 50 μM) is 2.7 @.

For the molecule `CCOC(=O)[C@@H](NC(=O)/C=C/c1ccc2c(c1)OCO2)[C@@H](C)CC` [Compound 163, Ethyl ((E)-3-(benzo[d][1,3]dioxol-5-yl)acryloyl)-L-isoleucinate], the EC50 is above 50 µM. Besides, for the setting “compound at 50 μM”, the “MSG Enh. Ratio” value is reported as 2.4 @. Consider `CCOC(=O)[C@H](Cc1ccccc1)NC(=O)/C=C/c1ccc(OCC)cc1` [Compound 154, Ethyl (E)-(3-(4-ethoxyphenyl)acryloyl)-L-phenylalaninate], for which the EC50 was found to be 3 µM. Also, for the setting “compound at 3 μM”, the “MSG Enh. Ratio” value is 2.0 @.

In the case of `C/C=C/C=C/C(=O)N[C@H](C(=O)OCC)C(C)C` [Compound 179, Ethyl ((2E,4E)-hexa-2,4-dienoyl)-L-valinate], the concentration giving a half-maximal response (EC50) was above 50 µM. For the setting “compound at 50 μM”, the “MSG Enh. Ratio” value is recorded as 3.0 @. On to `CCOC(=O)[C@@H](NC(=O)/C=C/c1ccc(OCC)cc1)C(C)C` [Compound 153, Ethyl (E)-(3-(4-ethoxyphenyl)acryloyl)-L-valinate], for which the EC50 came out at 1 µM. Also, the “MSG Enh. Ratio” value (compound at 0.3 μM) is listed as 7.4 @. In the case of `CCOC(=O)C[C@H](NC(=O)/C=C/c1ccccc1)C(=O)OCC` [Compound 138, Diethyl cinnamoyl-L-aspartate], the EC50 was above 50 µM. Also, the “MSG Enh. Ratio” value (compound at 50 μM) is 2.0 @. For the molecule `CCOC(=O)[C@H](CC(C)C)NC(=O)c1ccc(C)c(C)c1` [Compound 116, Ethyl (3,4-dimethylbenzoyl)-L-leucinate], the “MSG Enh. Ratio” value (compound at 3 μM) is 3.7 @.

Regarding `CCOC(=O)CC[C@H](NC(=O)c1ccc2c(c1)OCO2)C(=O)OCC` [Compound 129, Diethyl (benzo[d][1,3]dioxole-5-carbonyl)-L-glutamate], the EC50 worked out at 12 µM. For the same molecule, where the note is “compound at 3 μM”, the “MSG Enh. Ratio” value is on record as 7.5 @.

As to `COC(=O)[C@H](C)NC(=O)/C=C/c1ccc(OC)cc1` [Compound 142, Methyl (E)-(3-(4-methoxyphenyl)acryloyl)-L-alaninate], the EC50 was above 50 µM. Besides, the “MSG Enh. Ratio” value (compound at 50 μM) was 3.3 @. Consider `CCOC(=O)CC[C@H](NC(=O)/C=C/c1ccccc1)C(=O)OCC` [Compound 140, Diethyl cinnamoyl-L-glutamate], for which the EC50 was 12 µM. In addition, the “MSG Enh. Ratio” value (compound at 10 μM) is given as 5.6 @. For `CCOC(=O)[C@H](Cc1ccccc1)NC(=O)/C=C/c1ccc2c(c1)OCO2` [Compound 160, Ethyl (E)-(3-(benzo[d][1,3]dioxol-5-yl)acryloyl)-L-phenylalaninate], the EC50 is above 50 µM. Also, where the note is “compound at 50 μM”, the “MSG Enh. Ratio” value is recorded as 3.9 @. Consider `CCOC(=O)[C@H](CC(C)C)NC(=O)/C=C/c1ccccc1` [Compound 135, Ethyl cinnamoyl-L-leucinate], for which, where the note is “compound at 50 μM”, the “MSG Enh. Ratio” value is on record as 5.3 @.

In the case of `CCOC(=O)[C@@H](NC(=O)/C=C/c1ccc(OC)cc1)C(C)C` [Compound 147, Ethyl (E)-(3-(4-methoxyphenyl)acryloyl)-L-valinate], the EC50 is 2.24 µM. Besides, where the note is “compound at 0.3 μM”, the “MSG Enh. Ratio” value is recorded as 3.0 @. Take `C/C=C/C=C/C(=O)N[C@@H](CC(C)C)C(=O)OCC` [Compound 181, Ethyl ((2E,4E)-hexa-2,4-dienoyl)-L-leucinate]: the EC50 is above 50 µM. Moreover, the “MSG Enh. Ratio” value (compound at 50 μM) is 4.5 @. Regarding `CCOC(=O)[C@H](Cc1ccccc1)NC(=O)/C=C/C(C)C` [Compound 172, Ethyl (E)-(4-methylpent-2-enoyl)-L-phenylalaninate], the “MSG Enh. Ratio” value (compound at 10 μM) is 3.6 @. On to `CCOC(=O)[C@@H](NC(=O)c1ccc(C)c(C)c1)C(C)C` [Compound 118, Ethyl (3,4-dimethylbenzoyl)-L-valinate], for which the EC50 was determined as 4.8 µM. The “MSG Enh. Ratio” value (compound at 3 μM) is on record as 7.0 @.
